The subject of the experiment is human breast cancer cell line MCF7. As to the kind of experiment: Efficacy of the compounds on the survival of tumor cells (cytotoxic effect, cell-titer Glo luminescence). In kind it is cell-based. Conditions: 48 hours incubation with compound (2.4 nM to 10,000 nM), inhibition of cell survival. As for the experimental part: The effect of the compounds on the survival of the human breast cancer cell line MCF7 was measured.
The cell line was analyzed at 37° C. [98.6° F.], 95% humidity and 5% CO2 in RPMI Medium (Cambrex).
The cells are inoculated in a 96-well microtiter plate (Costar) at an initial density of 2400 cells per well and cultivated for 24 hours.
The compounds are dissolved in DMSO, diluted with cell medium and added to the wells.
The cells are incubated for another 48 hours at a concentration of the compounds between 2.4 nM and 10,000 nM at a volume of 50 μl.
50 μl of cell-titer Glo (Promega) are added to each well and the microtiter plate is incubated for 2 minutes at room temperature on a shaker and then left standing in the dark for 10 minutes.
The luminescence is measured with a microplate reader and is proportional to the number of surviving cells. The percentage of inhibition of the cell survival is calculated in comparison to (i) without cells and with compound (100% inhibition) and (ii) with cells and without compound (no inhibition).
The concentration of the half-maximum inhibition (IC50) is determined with GraphPad Prism (GraphPad Software), whereby the controls are 0% and 100%.

pIC50: −log10 of the molar value.

For orientation: pIC50 means −log10 of the IC50, conventionally taken in molar units. Regarding `C/C=C/C=C/c1cc2c(Br)c3c(c(O)c2c(=O)[nH]1)[C@]1(CC3)C(=O)c2c(O)c3c(c(O)c2C1=O)C(=O)C(N1CCOCC1)=C(Br)C3=O` [Compound 9, (BS)-4′,9,9′-trihydroxy-5,7′-dibromo-6′-morpholino-3-[(1E,3E)-penta-1,3-dienyl]-6,7-dihydrospiro[cyclopenta[g]-isoquinoline-8,2′-cyclopenta[b]-naphthalene]-1,1′-3′,5′,8′(2H)-pentone], the pIC50 is 6.17.

Consider `C/C=C/C=C/c1cc2c(Br)c3c(c(O)c2c(=O)[nH]1)[C@]1(CC3)C(=O)c2c(O)c3c(c(O)c2C1=O)C(=O)C(NC)=C(Br)C3=O` [Compound 7, (8S)-4′,9,9′-trihydroxy-5,7′-dibromo-6′-methylamino-3-[(1E,3E)-penta-1,3-dienyl]-6,7-dihydrospiro[cyclopenta[g]-isoquinoline-8,2′-cyclopenta[b]-naphthalene]-1,1′-3′,5′,8′(2H)-pentone], for which the pIC50 was 6.72.

For `C/C=C/C=C/c1cc2c(CN(C)C)c3c(c(O)c2c(=O)[nH]1)[C@@]1(CC3)C(=O)c2c(O)c3c(c(O)c2C1=O)C(=O)C(NC)=CC3=O` [Compound 7a, (8S)-4′,9,9′-trihydroxy-5-dimethylaminomethyl-6′-methylamine-3-[(1E,3E)-penta-1,3-dienyl]-6,7-dihydrospiro[cyclopenta[g]-isoquinoline-8,2′-cyclopenta[b]-naphthalene]-1,1′-3′,5′,8′(2H)-pentone], the pIC50 was 6.18. As to `CON=Cc1cc2c(Br)c3c(c(O)c2c(=O)[nH]1)[C@]1(CC3)C(=O)c2c(O)c3c(c(O)c2C1=O)C(=O)C(N(C)C)=C(Br)C3=O` [Compound 13, (8S)-4′,9,9′-trihydroxy-5,7′-dibromo-6′-dimethylamino-1,1′,3′,5′,8′-pentaoxo-1,1′,2,3′,5′,6,7,8′-octahydrospiro-[cyclopenta[g]-isoquinoline-8,2′-cyclopenta[b]naphthalene]-3-carbaldehyde-O-methyloxime], the pIC50 (Homo sapiens) is 6.52.

For “(8S)-4,9,9′-trihydroxy-5,7′-dibromo-6′-cyclopropylamino-1,1′,3′,5′,8′-pentaoxo-1,1′,2,3′,5′,6,7,8′-octahydrospiro-[cyclopenta[g]-isoquinoline-8,2′-cyclopenta[b]naphthalene]-3-carbaldehyde-O-methyloxime [Compound 12]”, the pIC50 was 6.42.

These data come from patent publication US20080318942A1, “Fredericamycin Derivatives” (BIOAGENCY AG, priority 2005, published 2008).
